In patent US5455356A, “Fungicidal 1-aryl-1-[α-(triazolyl)alkyl]-1-silacycloalkanes and their preparation methods” (priority 1993, dated 1995):

Assays:
Format in all cases: cell-based
Rhizoctonia solani = assay: In vitro mycelial/spore growth on potato-sucrose-agar, percent disease control (RS, first column); conditions: read-out: % controlled, RS
Description: (§1) The compounds of this invention were dissolved respectively in acetone in an amount equal to 10% of the final volume and then in purified water at the concentration of 100 ppm and 50 ppm.
(§2) Each of the solution was mixed with potato-sucrose-agar medium in 6" petri dish and one of the fungi was spotted at the center of the dish. The dish was incubated in growth room for several days. The percent disease control was derived from the radii of spore growth. The screening tests in vitro condition are well-known to those skilled in the art.
(§3) The following fungi were used for the screening.
7) Rhi. so.; Rhizoctonia solani

Botryosphaeri = assay: In vitro mycelial/spore growth on potato-sucrose-agar, percent disease control (BD); conditions: read-out: % controlled, BD
Description: as §1, §2, §3
4) Bo. do (Ma); Botryosphaeri

Botritis cinerea = assay: In vitro mycelial/spore growth on potato-sucrose-agar, percent disease control (BC); conditions: read-out: % controlled, BC
Description: as §1, §2, §3
10) Bo. ci.; Botritis cinerea

Fusarium moniliforme = assay: In vitro mycelial/spore growth on potato-sucrose-agar, percent disease control (FM); conditions: Fusarium verticillioides, Fusarium moniliforme, read-out: % controlled, FM
Description: as §1, §2, §3
8) Fu. mo.; Fusarium moniliforme

Pyricalaria oryzae = assay: In vitro mycelial/spore growth on potato-sucrose-agar, percent disease control (PO); conditions: read-out: % controlled, PO
Description: as §1, §2, §3
6) Py. or.; Pyricalaria oryzae

GC = assay: In vitro mycelial/spore growth on potato-sucrose-agar, percent disease control (GC); conditions: read-out: % controlled, GC; for inhibition of growth at 50 ppm: GC
Description: as §1, §2, §3

Rhizopus sp. = assay: In vitro mycelial/spore growth on potato-sucrose-agar, percent disease control (RS, second column); conditions: read-out: % controlled, RS; for inhibition of growth at 50 ppm: Rhizopus sp.; for inhibition of growth at 200 ppm: Rhizopus
Description: as §1, §2, §3
9) Rhi. sp.; Rhizopus sp.

Phytophthora capsisi = assay: In vitro mycelial/spore growth on potato-sucrose-agar, percent disease control (PC); conditions: read-out: % controlled, PC
Description: as §1, §2, §3
2) Phy. ca.; Phytophthora capsisi

Compound	inhibition of growth at 50 ppm (Rhizoctonia solani)	inhibition of growth at 200 ppm (Rhizoctonia solani)	inhibition of growth at 50 ppm (Botryosphaeri)	inhibition of growth at 200 ppm (Botryosphaeri)	inhibition of growth at 50 ppm (Botritis cinerea)	inhibition of growth at 200 ppm (Botritis cinerea)	inhibition of growth at 50 ppm (Fusarium moniliforme)	inhibition of growth at 200 ppm (Fusarium moniliforme)	inhibition of growth at 50 ppm (Pyricalaria oryzae)	inhibition of growth at 200 ppm (Pyricalaria oryzae)	inhibition of growth at 50 ppm (GC)	inhibition of growth at 200 ppm (GC)	inhibition of growth at 50 ppm (Rhizopus sp.)	inhibition of growth at 200 ppm (Rhizopus sp.)	inhibition of growth at 50 ppm (Phytophthora capsisi)	inhibition of growth at 200 ppm (Phytophthora capsisi)
CC(n1cncn1)[Si]1(c2ccc(C(F)(F)F)cc2)CCCCC1 (stereo not drawn) [1-(4-trifluoromethyl)-1-[α-(1H-1,2,4-triazole-1-yl)ethyl]-1-silacyclohexane]	99%	100%	100%	100%	66%	99%	58%	99%	100%	100%	100%	100%	47%	56%	39%	78%
Clc1ccc([Si]2(Cn3cncn3)CCCC2)cc1 [1-(4-chlorophenyl)-1-(1H-1,2,4-triazole-1-yl)methyl-1-silacyclopentane]	95%	100%	70%	99%	100%	100%	100%	100%	100%	100%	100%	100%	67%	75%	15%	98%
Fc1ccc([Si]2(Cn3cncn3)CCCCC2)cc1 [1-(4-fluorophenyl)-1-(1H-1,2,4-triazole-1-yl)methyl-1-silacyclohexane]	55%	59%	100%	100%	100%	100%	100%	100%	96%	100%	100%	100%	75%	93%	47%	74%
CC(n1cncn1)[Si]1(c2ccc(Cl)cc2Cl)CCCCC1 (stereo not drawn) [1-(2,4-dichlorophenyl)-1-[α-(1H-1,2,4-triazole-1-yl)ethyl]-1-silacyclohexane]	100%	100%	100%	100%	100%	100%	100%	100%	100%	100%	100%	100%	54%	60%	64%	100%
CC(n1cncn1)[Si]1(c2ccc(-c3ccccc3)cc2)CCCC1 (stereo not drawn) [1-(4-biphenyl)-1-[α-(1H-1,2,4-triazole-1-yl)ethyl]-1-silacyclopentane]	100%	100%	100%	100%	100%	100%	97%	100%	100%	100%	100%	100%	86%	90%	80%	100%
CC(n1cncn1)[Si]1(c2ccc(Cl)cc2Cl)CCCC1 (stereo not drawn) [1-(2,4-dichlorophenyl)-1-[α-(1H-1,2,4-triazole-1-yl)ethyl)-1-silacyclopentane]	69%	87%	95%	100%	92%	100%	100%	100%	100%	100%	100%	100%	68%	94%	83%	96%
CC(n1cncn1)[Si]1(c2ccc(F)cc2)CCCCC1 (stereo not drawn) [1-(4-fluorophenyl)-1-[α-(1H-1,2,4-triazole-1-yl)ethyl]-1-silacyclohexane]	100%	100%	100%	100%	100%	100%	100%	100%	100%	100%	100%	100%	76%	86%	77%	85%
CCOc1ccc([Si]2(C(C)n3cncn3)CCCCC2)cc1 (stereo not drawn) [1-(4-ethoxyphenyl)-1-[α-(1H-1,2,4-triazole-1-yl)ethyl]-1-silacyclohexane]	97%	100%	92%	100%	65%	98%	65%	98%	100%	100%	100%	100%	34%	56%	45%	75%
Clc1ccc([Si]2(Cn3cncn3)CCCC2)c(Cl)c1 [1-(2,4-dichlorophenyl)-1-(1H-1,2,4-triazole-1-yl)methyl-1-silacyclopentane]	65%	100%	97%	100%	99%	100%	100%	100%	100%	100%	100%	100%	59%	70%	72%	79%
CCOc1ccc([Si]2(Cn3cncn3)CCCC2)cc1 [1-(4-ethoxyphenyl)-1-(1H-1,2,4-triazole-1-yl)methyl-1-silacyclopentane]	72%	100%	82%	89%	70%	74%	68%	79%	100%	100%	100%	100%	66%	77%	40%	100%
